Experimental data taken from patent publication US11401270B2, “Alcoxyamino derivatives for treating pain and pain related conditions” (ESTEVE PHARMACEUTICALS, S.A., priority 2017, dated 2022).

Target: Human α2δ-1 subunit of Cav2.2 calcium channel (Homo sapiens (Human), UniProt P54289)
Assay: Binding Assay to Human α2δ-1 Subunit of Cav2.2 Calcium Channel
Conditions: Table 1; human α2δ-1 enriched membranes, 15 nM [3H]-Gabapentin; read-out: Ki(nM) alpha2delta Hum
Experimental: Binding Assay to Human α2δ-1 Subunit of Cav2.2 Calcium Channel.
NSB (non specific binding) was measured by adding 10 μM pregabalin. The binding of the test compound was measured in five different concentrations. After 60 min incubation at 27° C., binding reaction was terminated by filtering through Multiscreen GF/C (Millipore) presoaked in 0.5% polyethyleneimine in Vacuum Manifold Station, followed by 3 washes with ice-cold filtration buffer containing 50 mM Tris-HCl, pH 7.4.
Filter plates were dried at 60° C. for 1 hour and 30 μl of scintillation cocktail were added to each well before radioactivity reading.

Human α2δ-1 subunit of Cav2.2 calcium channel, sequence (P54289 25-1103): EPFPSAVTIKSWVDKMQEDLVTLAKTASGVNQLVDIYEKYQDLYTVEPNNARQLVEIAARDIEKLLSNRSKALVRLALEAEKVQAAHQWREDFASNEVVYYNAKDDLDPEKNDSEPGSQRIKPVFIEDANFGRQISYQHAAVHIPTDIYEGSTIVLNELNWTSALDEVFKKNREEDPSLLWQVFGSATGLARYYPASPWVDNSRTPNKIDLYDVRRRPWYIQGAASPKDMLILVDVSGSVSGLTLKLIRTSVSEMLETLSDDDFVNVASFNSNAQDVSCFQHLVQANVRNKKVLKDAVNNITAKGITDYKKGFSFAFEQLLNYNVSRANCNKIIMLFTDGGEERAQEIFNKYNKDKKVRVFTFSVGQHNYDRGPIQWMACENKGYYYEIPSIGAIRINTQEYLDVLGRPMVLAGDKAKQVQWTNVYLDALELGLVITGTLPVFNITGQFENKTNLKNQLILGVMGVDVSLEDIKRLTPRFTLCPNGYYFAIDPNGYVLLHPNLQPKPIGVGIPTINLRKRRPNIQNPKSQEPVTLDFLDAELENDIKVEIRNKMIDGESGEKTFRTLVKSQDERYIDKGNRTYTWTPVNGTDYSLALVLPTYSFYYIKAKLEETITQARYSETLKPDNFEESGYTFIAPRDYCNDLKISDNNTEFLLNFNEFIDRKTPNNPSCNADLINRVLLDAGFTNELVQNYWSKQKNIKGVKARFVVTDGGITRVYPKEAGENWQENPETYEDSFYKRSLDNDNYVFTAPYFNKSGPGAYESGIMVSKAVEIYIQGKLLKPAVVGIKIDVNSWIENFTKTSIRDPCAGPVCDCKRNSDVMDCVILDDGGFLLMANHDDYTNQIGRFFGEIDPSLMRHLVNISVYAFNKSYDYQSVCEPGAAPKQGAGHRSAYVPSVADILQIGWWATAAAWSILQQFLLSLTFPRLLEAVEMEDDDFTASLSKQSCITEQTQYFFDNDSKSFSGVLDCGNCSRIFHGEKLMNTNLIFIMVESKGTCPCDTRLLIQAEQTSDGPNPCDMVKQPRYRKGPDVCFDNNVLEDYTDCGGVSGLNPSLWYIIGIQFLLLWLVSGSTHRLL

SMILES	Ki [nM]
CNCCC(Oc1cccc(N2CCN(C)c3ccccc3C2)c1)c1cccs1 (stereo not shown) [Example 9, N-methyl-3-(3-(1-methyl-1,2,3,5-tetrahydro-4H-benzo[e][1,4]diazepin-4-yl)phenoxy)-3-(thiophen-2-yl)propan-1-amine]	> 3000
CNCC[C@H](OCc1cccc(N2CCCN(C)CC2)c1)c1ccccc1 [Example 12, (S)-N-methyl-3-((3-(4-methyl-1,4-diazepan-1-yl)benzyl)oxy)-3-phenylpropan-1-amine]	> 3000
CNCC[C@H](OCc1cccc(N2CCN(C)c3ccccc3C2=O)c1)c1cccs1 [Example 15, (S)-1-methyl-4-(3-((3-(methylamino)-1-(thiophen-2-yl)propoxy)methyl)phenyl)-1,2,3,4-tetrahydro-5H-benzo[e][1,4]diazepin-5-one]	> 3000
CNCCC(Oc1cccc(N2CCCCCC2=O)c1)c1cccs1 (stereo not shown) [Example 17, 1-(3-(3-(Methylamino)-1-(thiophen-2-yl)propoxy)phenyl)azepan-2-one]	> 3000
CCN[C@@H]1CCCCN(c2cccc(O[C@@H](CCNC)c3cccs3)c2)C1=O [Example 18, (R)-3-(ethylamino)-1-(3-((S)-3-(methylamino)-1-(thiophen-2-yl)propoxy)phenyl)azepan-2-one]	500 to 3000
CCN[C@H]1CCCCN(c2cccc(O[C@@H](CCNC)c3cccs3)c2)C1=O [Example 19, (S)-3-(ethylamino)-1-(3-((S)-3-(methylamino)-1-(thiophen-2-yl)propoxy)phenyl)azepan-2-one]	500 to 3000
CCNC[C@H]1CC(=O)N(c2cccc(O[C@@H](CCNC)c3ccccc3)c2)CCN1C [Example 22, (R)-7-((ethylamino)methyl)-1-methyl-4-(3-((S)-3-(methylamino)-1-phenylpropoxy)phenyl)-1,4-diazepan-5-one]	> 3000
CCNC[C@@H]1CC(=O)N(c2cccc(O[C@@H](CCNC)c3ccccc3)c2)CCN1C [Example 23, (S)-7-((ethylamino)methyl)-1-methyl-4-(3-((S)-3-(methylamino)-1-phenylpropoxy)phenyl)-1,4-diazepan-5-one]	> 3000
CCNC[C@H]1CN(C)CCN(c2cccc(O[C@@H](CCNC)c3ccccc3)c2)C1=O [Example 24, (S)-6-((ethylamino)methyl)-1-methyl-4-(3-((S)-3-(methylamino)-1-phenylpropoxy)phenyl)-1,4-diazepan-5-one]	> 3000
CCNC[C@@H]1CN(C)CCN(c2cccc(O[C@@H](CCNC)c3ccccc3)c2)C1=O [Example 25, (R)-6-((ethylamino)methyl)-1-methyl-4-(3-((S)-3-(methylamino)-1-phenylpropoxy)phenyl)-1,4-diazepan-5-one]	> 3000
CNCCC(OCc1cccc(N2CCN(C)c3cccnc3C2=O)c1)c1ccccc1 (stereo not shown) [Example 26, 1-Methyl-4-(3-((3-(methylamino)-1-phenylpropoxy)methyl)phenyl)-1,2,3,4-tetrahydro-5H-pyrido[3,2-e][1,4]diazepin-5-one]	500 to 3000
CNCCC(OCc1cccc(N2CCN(C)c3cnccc3C2=O)c1)c1ccccc1 (stereo not shown) [Example 28, 1-Methyl-4-(3-((3-(methylamino)-1-phenylpropoxy)methyl)phenyl)-1,2,3,4-tetrahydro-5H-pyrido[3,4-e][1,4]diazepin-5-one]	500 to 3000
CNCC[C@H](OCc1cccc(N2C[C@@H]3CCCN3c3ccccc3C2=O)c1)c1ccccc1 [Example 30, (S)-5-(3-(((S)-3-(methylamino)-1-phenylpropoxy)methyl)phenyl)-1,2,3,3a,4,5-hexahydro-6H-benzo[f]pyrrolo[1,2-a][1,4]diazepin-6-one]	> 3000
CNCC[C@@H](OCc1cccc(N2C[C@@H]3CCCN3c3ccccc3C2=O)c1)c1ccccc1 [Example 31, (S)-5-(3-(((R)-3-(methylamino)-1-phenylpropoxy)methyl)phenyl)-1.2,3,3a,4,5-hexahydro-6H-benzo[f]pyrrolo[1,2-a][1,4]diazepin-6-one]	500 to 3000
CNCCC(Oc1cccc(N2CCN(C)CCC2=O)c1)c1ccccc1 (stereo not shown) [Example 32, 1-Methyl-4-(3-(3-(methylamino)-1-phenylpropoxy)phenyl)-1,4-diazepan-5-one]	> 3000
CNCCC(Oc1cccc(N2CCCCCC2=O)c1)c1ccccc1 (stereo not shown) [Example 33, 1-(3-(3-(Methylamino)-1-phenylpropoxy)phenyl)azapan-2-one]	> 3000
CNCCC(OCc1cccc(N2CCCCCC2=O)c1)c1ccccc1 (stereo not shown) [Example 35, 1-(3-((3-(Methylamino)-1-phenylpropoxy)methyl)phenyl)azepan-2-one]	500 to 3000
CNCCC(OCc1cccc(N2CCCN(C)CC2=O)c1)c1ccccc1 (stereo not shown) [Example 36, 4-Methyl-1-(3-((3-(methylamino)-1-phenylpropoxy)methyl)phenyl)-1,4-diazepan-2-one]	500 to 3000
CNCCC(OCc1cccc(N2CCN(C)c3ccccc3C2=O)c1)c1ccccc1 (stereo not shown) [Example 38, 1-Methyl-4-(3-((3-(methylamino)-1-phenylpropoxy)methyl)phenyl)-1,2,3,4-tetrahydro-5H-benzo[e][1,4]diazepin-5-one]	500 to 3000
CNCCC(OCc1cccc(N2CCN(C)c3ccccc3C2=O)c1)c1cccc(F)c1 (stereo not shown) [Example 40, 4-(3-((1-(3-Fluorophenyl)-3-(methylamino)propoxy)methyl)phenyl)-1-methyl-1,2,3,4-tetrahydro-5H-benzo[e][1,4]diazepin-5-one]	500 to 3000
CNCC[C@@H](OCc1cccc(N2CCN(C)c3ccccc3C2=O)c1)c1cccc(F)c1 [Example 41, (R)-4-(3-((1-(3-fluorophenyl)-3-(methylamino)propoxy)methyl)phenyl)-1-methyl-1,2,3,4-tetrahydro-5H-benzo[e][1,4]diazepin-5-one]	> 3000
CNCC[C@H](OCc1cccc(N2CCN(C)c3ccccc3C2=O)c1)c1cccc(F)c1 [Example 42, (S)-4-(3-((1-(3-fluorophenyl)-3-(methylamino)propoxy)methyl)phenyl)methyl-1 2,3,4-tetrahydro-5H-benzo[e][1,4]diazepin-5-one]	500 to 3000
CN1CCN(c2cccc(COC(CCNCCF)c3ccccc3)c2)C(=O)c2ccccc21 (stereo not shown) [Example 44, 4-(3-((3-((2-Fluoroethyl)amino)-1-phenylpropoxy)methyl)phenyl)-1-methyl-1,2,3,4-tetrahydro-5H-benzo[e][1,4]diazepin-5-one]	500 to 3000
CNCCC(OCc1cccc(N2CCN(C)c3ncccc3C2=O)c1)c1ccccc1 (stereo not shown) [Example 45, 1-Methyl-4-(3-((3-(methylamino)-1-phenylpropoxy)methyl)phenyl)-1,2,3,4-tetrahydro-5H-pyrido[2,3-e][1,4]diazepin-5-one]	500 to 3000

Other lines, results leading:

Ki [nM]	SMILES
500 to 3000	CCNC1CCCN(c2cccc(O[C@@H](CCNC)c3cccs3)c2)C(=O)C1 (single isomer, unassigned) [Example 118a]
500 to 3000	CCNC1CCCN(c2cccc(O[C@@H](CCNC)c3cccs3)c2)C(=O)C1 (single isomer, unassigned) [Example 118b]
500 to 3000	CNCCC(Oc1cccc(C(=O)N2CCCN(C)CC2)c1)c1cccs1 (stereo not shown) [Example 2, (4-Methyl-1,4-diazepan-1-yl)(3-(3-(methylamino)-1-(thiophen-2-yl)propoxy)phenyl)methanone]
500 to 3000	CNCCC(Oc1cccc(C(=O)N2CCN(C)c3ccccc3C2)c1)c1cccs1 (stereo not shown) [Example 4, (1-Methyl-1,2,3,5-tetrahydro-4H-benzo[e][1,4]diazepin-4-yl)(3-(3-(methylamino)-1-(thiophen-2-yl)propoxy)phenyl)methanone]
500 to 3000	CNCCC(Oc1cccc(N2CCCN(C)CC2)c1)c1ccccc1 (stereo not shown) [Example 5, N-methyl-3-(3-(4-methyl-1,4-diazepan-1-yl)phenoxy)-3-phenylpropan-1-amine]
100 to 500	CNCCC(Oc1cccc(N2CCCN(C)CC2)c1)c1cccs1 (stereo not shown) [Example 8, N-methyl-3-(3-(4-methyl-1,4-diazepan-1-yl)phenoxy)-3-(thiophen-2-yl)propan-1-amine]
500 to 3000	CCNCC(=O)N1CCCN(c2cccc(OC(CCNC)c3cccs3)c2)CC1 (stereo not shown) [Example 11, 2-(Ethylamino)-1-(4-(3-(3-(methylamino)-1-(thiophen-2-yl)propoxy)phenyl)-1,4-diazepan-1-yl)ethan-1-one]
500 to 3000	CNCC[C@@H](OCc1cccc(N2CCCN(C)CC2)c1)c1ccccc1 [Example 13, (R)-N-methyl-3-((3-(4-methyl-1,4-diazepan-1-yl)benzyl)oxy)-3-phenylpropan-1-amine]
100 to 500	CNCC[C@@H](OCc1cccc(N2CCN(C)c3ccccc3C2=O)c1)c1cccs1 [Example 14, (R)-1-methyl-4-(3-((3-(methylamino)-1-(thiophen-2-yl)propoxy)methyl)phenyl)-1,2,3,4-tetrahydro-5H-benzo[e][1,4]diazepin-5-one]
500 to 3000	CNCCC(OCc1cccc(N2CCCCCC2=O)c1)c1cccs1 (stereo not shown) [Example 16, 1-(3-((3-(Methylamino)-1-(thiophen-2-yl)propoxy)methyl)phenyl)azepan-2-one]
100 to 500	CNCCC(OCc1cccc(N2CCN(C)c3cc(F)cnc3C2=O)c1)c1ccccc1 (stereo not shown) [Example 27, 8-Fluoro-1-methyl-4-(3-((3-(methylamino)-1-phenylpropoxy)methyl)phenyl)-1,2,3,4-tetrahydro-5H-pyrido[3,2-e][1,4]diazepin-5-one]
100 to 500	CNCCC(OCc1cccc(N2CCN(C)c3ccccc3C2=O)c1)c1ccccc1F (stereo not shown) [Example 39, 4-(3-((1-(2-Fluorophenyl)-3-(methylamino)propoxy)methyl)phenyl)-1-methyl-1,2,3,4-tetrahydro-5H-benzo[e][1,4]diazepin-5-one]
100 to 500	CCNCCC(OCc1cccc(N2CCN(C)c3ccccc3C2=O)c1)c1ccccc1 (stereo not shown) [Example 43, 4-(3-((3-(Ethylamino)-1-phenylpropoxy)methyl)phenyl)-1-methyl-1,2,3,4-tetrahydro-5H-benzo[e][1,4]diazepin-5-one]
